Source: patent US8129396B2, “2-[1H-benzimidazol-2(3H)-ylidene]-2-(pyrimidin-2-yl)acetamides and 2-[benzothiazol-2(3H)-ylidene]-2-(pyrimidin-2-yl)acetamides as kinase inhibitors” (Telik, Inc., priority 2008, dated 2012)

Experiments:
[1] = molecular target: T1, Aurora A kinase (Homo sapiens, UniProt O14965); assay: Aurora A kinase assay (IMAP fluorescence polarization); assay type: biochemical; conditions: 10 μM ATP; rounded to 1 significant figure; read-out: Aur-A IC50
T1 construct: purchased Upstate Biotech
T1 sequence (O14965 1-403): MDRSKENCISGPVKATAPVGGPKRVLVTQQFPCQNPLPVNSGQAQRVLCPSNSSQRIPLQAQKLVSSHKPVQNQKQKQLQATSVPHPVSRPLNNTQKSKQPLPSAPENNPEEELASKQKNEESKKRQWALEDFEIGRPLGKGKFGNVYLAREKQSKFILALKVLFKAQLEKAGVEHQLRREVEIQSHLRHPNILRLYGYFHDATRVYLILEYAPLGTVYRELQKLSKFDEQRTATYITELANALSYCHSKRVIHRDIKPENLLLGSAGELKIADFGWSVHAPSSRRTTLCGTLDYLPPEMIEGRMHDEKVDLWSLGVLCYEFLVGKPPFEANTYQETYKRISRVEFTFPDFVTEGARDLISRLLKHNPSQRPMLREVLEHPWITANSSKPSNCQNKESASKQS
Text: (§1) The cell lines HL60 (human promyelocytic leukemia) and HCT116 (human colon carcinoma) were obtained from the American Type Culture Collection, Manassas, Va., U.S.A., and HUVEC-2 (human umbilical vein endothelial cells) from BD Biosciences, Bedford, Mass., U.S.A. Aurora A kinase was obtained from Upstate Biotech, Billerica, Mass., U.S.A.; Aurora B kinase from BPS Bioscience, San Diego, Calif., U.S.A.; and VEGFR2 kinase from Cell Signaling Technology, Danvers, Mass., U.S.A. The IMAP FP Screening Express kit was obtained from Molecular Devices, Sunnyvale, Calif., U.S.A.; the CellTiter-Glo assay kit from Promega Corporation, Madison, Wis., U.S.A.; and the Cellular DNA Cytometric Analysis Reagent Kit and BrdU labeling and detection kit from Roche Diagnostics Corporation, Indianapolis, Ind., U.S.A. All products were used in accordance with manufacturer's directions. Kinase inhibition assays and the histone phosphorylation (p-H3) assay were conducted in duplicate, and the cytotoxicity and HUVEC proliferation assays were conducted in triplicate, in each case with solvent control.
Aurora A kinase assay: the test compounds were diluted in dimethylsulfoxide (DMSO, eight concentrations with serial 3-fold dilutions) and incubated (final DMSO concentration 2.5%) with Aurora A kinase at room temperature for 5 min in kinase reaction buffer with 1 mM dithiothreitol (IMAP FP Screening Express). The kinase reaction was initiated by adding 100 nM fluorescein labeled PKAtide and 10 μM adenosine triphosphate (ATP), and allowed to continue for 45 min at room temperature, after which it was stopped by adding binding reagent (1:400 dilution in binding buffer A). After 30 min of room temperature incubation with shaking, the fluorescence polarization was measured on a LJL plate reader. Aurora B kinase assay: performed as for the Aurora A kinase assay, but using Aurora B kinase instead of Aurora A kinase.

[2] = molecular target: T2, Aurora B kinase (Homo sapiens, UniProt Q96GD4); assay: Aurora B kinase assay (IMAP fluorescence polarization); assay type: biochemical; conditions: 10 μM ATP; rounded to 1 significant figure; read-out: Aur-B IC50
T2 construct: purchased BPS Bioscience
T2 sequence (Q96GD4 whole entry): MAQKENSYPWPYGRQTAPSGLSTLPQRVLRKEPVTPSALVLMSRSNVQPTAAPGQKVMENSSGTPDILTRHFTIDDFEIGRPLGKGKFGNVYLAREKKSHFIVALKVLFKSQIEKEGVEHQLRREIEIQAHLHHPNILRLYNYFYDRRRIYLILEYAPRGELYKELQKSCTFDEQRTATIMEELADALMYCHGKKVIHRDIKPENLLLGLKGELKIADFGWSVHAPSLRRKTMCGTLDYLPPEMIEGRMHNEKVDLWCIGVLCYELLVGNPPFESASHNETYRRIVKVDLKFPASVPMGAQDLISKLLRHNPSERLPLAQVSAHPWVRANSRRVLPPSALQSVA
Text: as §1
The kinase reaction was initiated by adding 100 nM fluorescein labeled PKAtide and 10 μM adenosine triphosphate (ATP), and allowed to continue for 45 min at room temperature, after which it was stopped by adding binding reagent (1:400 dilution in binding buffer A). After 30 min of room temperature incubation with shaking, the fluorescence polarization was measured on a LJL plate reader. Aurora B kinase assay: performed as for the Aurora A kinase assay, but using Aurora B kinase instead of Aurora A kinase.

[3] = molecular target: T3, VEGFR2 kinase (Homo sapiens, UniProt P35968); assay: VEGFR2 kinase assay; assay type: biochemical; conditions: 6 μM ATP, 1 mM MnCl2; rounded to 1 significant figure
T3 construct: purchased Cell Signaling Technology
T3 sequence (P35968 20-1356): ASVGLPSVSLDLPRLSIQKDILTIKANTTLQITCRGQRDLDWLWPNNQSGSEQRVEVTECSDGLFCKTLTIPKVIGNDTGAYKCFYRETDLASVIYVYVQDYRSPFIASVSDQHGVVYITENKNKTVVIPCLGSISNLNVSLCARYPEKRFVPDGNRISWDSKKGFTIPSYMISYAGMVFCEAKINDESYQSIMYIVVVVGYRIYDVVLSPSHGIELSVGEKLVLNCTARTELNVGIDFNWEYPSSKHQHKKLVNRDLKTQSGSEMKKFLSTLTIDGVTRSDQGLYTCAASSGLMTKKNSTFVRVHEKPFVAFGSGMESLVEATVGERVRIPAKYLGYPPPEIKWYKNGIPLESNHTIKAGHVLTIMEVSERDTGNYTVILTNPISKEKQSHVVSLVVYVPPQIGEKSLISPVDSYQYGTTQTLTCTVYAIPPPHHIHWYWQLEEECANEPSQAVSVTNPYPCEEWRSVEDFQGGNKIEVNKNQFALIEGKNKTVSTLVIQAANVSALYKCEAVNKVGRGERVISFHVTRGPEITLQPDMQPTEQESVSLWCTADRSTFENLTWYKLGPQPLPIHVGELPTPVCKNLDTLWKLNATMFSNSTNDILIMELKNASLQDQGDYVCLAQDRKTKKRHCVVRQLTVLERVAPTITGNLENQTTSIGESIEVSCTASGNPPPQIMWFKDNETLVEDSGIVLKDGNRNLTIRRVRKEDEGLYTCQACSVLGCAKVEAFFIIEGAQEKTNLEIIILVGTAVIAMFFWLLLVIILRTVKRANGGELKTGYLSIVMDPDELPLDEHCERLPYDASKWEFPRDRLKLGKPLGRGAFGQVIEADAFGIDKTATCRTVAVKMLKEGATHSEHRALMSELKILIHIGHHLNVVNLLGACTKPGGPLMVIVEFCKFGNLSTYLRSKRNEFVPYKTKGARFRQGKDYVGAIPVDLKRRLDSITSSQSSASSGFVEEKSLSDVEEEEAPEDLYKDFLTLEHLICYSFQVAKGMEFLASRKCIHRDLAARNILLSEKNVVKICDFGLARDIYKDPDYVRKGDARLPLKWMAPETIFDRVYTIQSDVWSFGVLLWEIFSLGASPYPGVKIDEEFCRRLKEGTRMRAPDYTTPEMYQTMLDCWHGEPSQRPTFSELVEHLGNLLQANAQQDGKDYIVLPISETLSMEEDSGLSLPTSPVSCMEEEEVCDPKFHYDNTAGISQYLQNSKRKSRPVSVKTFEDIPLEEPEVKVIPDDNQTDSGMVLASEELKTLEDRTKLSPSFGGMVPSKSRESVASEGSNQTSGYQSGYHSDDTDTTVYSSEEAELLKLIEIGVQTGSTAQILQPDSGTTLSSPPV
Text: as §1
This assay was performed as for the Aurora A kinase assay, using VEGFR2 kinase, CSKtide as the substrate with 6 μM ATP and 1 mM MnCl2, a kinase reaction time of 1 hr, and dilution of the binding reagent 1:1200 in binding buffer A/binding buffer B (1:1).

[4] = tested on: p-H3 in HCT116 cells; assay: Histone phosphorylation (p-H3) assay; assay type: cell-based; conditions: Homo sapiens, HCT-116; HCT116 cells, 4 hr incubation; read-out: p-H3 IC50
Text: as §1
Log phase HCT116 cells were seeded at 2.5×10^4 cells/well in a 96-well plate and allowed to attach overnight. The test compounds were diluted in DMSO (8 concentrations with serial 3-fold dilutions) and added to the cells (0.5% DMSO final concentration), and the cells incubated for 4 hr. The cells were then washed three times with cold phosphate-buffered saline (PBS), and lysis buffer was added. After 30 min shaking at 4° C. and centrifugation, the supernatants were transferred to a nitrocellulose membrane by a “dot-blot” apparatus. After washing the wells, the membrane was processed for Western blot. Detection of p-H3 and β-actin was performed on the same membrane with primary rabbit anti-p-H3 and mouse anti-β-actin antibodies followed by secondary goat anti-rabbit IRDye800 and goat anti-mouse AlexaFluor 680 antibodies. The membranes were scanned on an Odyssey scanner.

[5] = tested on: HCT116 (human colon carcinoma) cells; assay: HCT116 cytotoxicity assay (CellTiter-Glo); assay type: cell-based; conditions: HCT-116, 72 h, cytotoxicity, three days culture, read-out: HCT116 IC50
Text: as §1
Log-phase cells were trypsinized, collected by centrifugation, and resuspended in a small volume of fresh medium, and the density of viable cells was determined following Trypan Blue staining. Cells were diluted in fresh media (1×10^4 cells/mL for HL60 and 4×10^4 cells/mL for HCT116 cells), the test compounds (concentrations between 0.1 μM and 200 μM, dissolved in DMSO, 50 μL) added immediately after dilution to achieve a final DMSO concentration of 0.5%, then the suspensions added at 150 μL/well to 96-well plates, and incubated overnight to allow attachment in the case of adherent cells. The cells were cultured for three days (about three doubling times). The cells were then collected by centrifugation, and 100 μL of the culture supernatant was replaced by the CellTiter-Glo reagent. After incubation for 15 minutes at room temperature, the plate was read with a luminometer.

[6] = tested on: HUVEC-2 (human umbilical vein endothelial cells); assay: HUVEC VEGF-dependent proliferation assay (BrdU); assay type: cell-based; conditions: VEGF (25 ng/mL)-dependent proliferation, read-out: HUVEC IC50
Text: as §1
HUVEC-2 cells were seeded at 10^4 cells/well in a 96-well plate coated with 0.1% gelatin in complete medium. […] The compounds were serially diluted in DMSO, and added to the cells at 0.5% DMSO final concentration. After 2 hr, VEGF (25 ng/mL) was added; and after a further day, 5-bromo-2-deoxyuridine (BrdU, 10 μM) was added to label proliferating cells, and the cells incubated for another day. The plates were then processed using the Roche BrdU labeling and detection kit, and the VEGF-dependent antiproliferative activity of the compounds determined.

| Compound | IC50 [1] [nM] | IC50 [2] [nM] | IC50 [3] [nM] | IC50 [4] [nM] | IC50 [5] [nM] | IC50 [6] [nM] |
| --- | --- | --- | --- | --- | --- | --- |
| NCC(=O)Nc1ccc2c(c1)SC(=C(C(N)=O)c1nccc(C(F)(F)F)n1)N2 (single isomer, unassigned) [Compound 76A, 2-{6-[(2-aminoacetyl)-amino]benzothiazol-2(3H)-ylidene}-2-(4-trifluoromethylpyrimidin-2-yl)acetamide] | 50 | 5 | 80 | 200 | 700 | 100 |
| CN1CCN(C(=O)c2cnc(C(C(N)=O)=C3Nc4ccccc4S3)nc2C(F)(F)F)CC1 (single isomer, unassigned) [Compound 130A, 2-[benzothiazol-2(3H)-ylidene]-2-[5-(4-methylpiperazine-1-carbonyl)-4-trifluoromethylpyrimidin-2-yl]acetamide] | 100 | 9 | 20 | 300 | 2000 | 400 |
| COc1ccnc(/C(C(N)=O)=C2/Nc3ccccc3S2)n1 [Compound 16A] | 100 | 20 | 300 | 2000 | 2000 | 2000 |
| CN1CCN(CCNC(=O)c2ccc3c(c2)S/C(=C(/C(N)=O)c2nccc(C(F)(F)F)n2)N3)CC1 [Compound 57A] | 20 | 20 | 10 | 100 | 100 | 20 |
| CN(C)CCCNC(=O)c1ccc2c(c1)N/C(=C(/C(N)=O)c1nccc(C(F)(F)F)n1)N2 [Compound 62A] | 70 | 10 | 6 | 400 | 60 | 60 |
| NCCNC(=O)c1ccc2c(c1)S/C(=C(/C(N)=O)c1nccc(C(F)(F)F)n1)N2 [Compound 63A] | 30 | 30 | 5 | 400 | 200 | 60 |
| NC(=O)/C(=C1\Nc2ccc(C(=O)N3CCC(N)CC3)cc2N1)c1nccc(C(F)(F)F)n1 [Compound 66A] | 20 | 10 | 2 | 200 | 200 | 50 |
| NC(=O)/C(=C1\Nc2ccc(C(=O)N3CC[C@@H](N)C3)cc2S1)c1nccc(C(F)(F)F)n1 [Compound 69A] | 20 | 30 | 2 | 100 | 90 | 20 |
| NC(=O)/C(=C1\Nc2ccc(C(=O)NC3CCNCC3)cc2S1)c1nccc(C(F)(F)F)n1 [Compound 71A] | 20 | 40 | 4 | 200 | 200 | 90 |
| NC(=O)/C(=C1\Nc2ccc(C(=O)Nc3ccc(CN4CCOCC4)cc3)cc2N1)c1nccc(C(F)(F)F)n1 [Compound 72A] | 20 | 20 | 20 | 300 | 200 | 80 |
| NC(=O)/C(=C1\Nc2ccc(NCCN3CCOCC3)cc2S1)c1nccc(C(F)(F)F)n1 [Compound 124A] | 30 | 30 | 100 |  | > 20000 | 3000 |

More lines, main results first:

| IC50 [1] [nM] | IC50 [2] [nM] | IC50 [3] [nM] | IC50 [4] [nM] | Compound | IC50 [5] [nM] | IC50 [6] [nM] |
| --- | --- | --- | --- | --- | --- | --- |
| 5 | 5 | 10 | 4000 | NC(=O)/C(=C1\Nc2ccc(C(=O)O)cc2N1)c1nccc(C(F)(F)F)n1 [Compound 28A] | 4000 | 40 |
| 10 | 10 | 10 | 200 | NC(=O)/C(=C1\Nc2ccc(C(=O)Nc3ccncc3)cc2N1)c1nccc(C(F)(F)F)n1 [Compound 44A] | 200 | 80 |
| 20 | 10 | 20 | 400 | NC(=O)/C(=C1\Nc2cc(F)c(C(=O)NCCCN3CCOCC3)cc2S1)c1nccc(C(F)(F)F)n1 [Compound 50A] | 300 | 90 |
| 20 | 20 | 20 | 700 | CCN1CCN(CCCNC(=O)c2ccc3c(c2)N/C(=C(/C(N)=O)c2nccc(C(F)(F)F)n2)N3)CC1 [Compound 55A] | 300 | 50 |
| 20 | 20 | 20 | 700 | CCN1CCN(CCCNC(=O)c2ccc3c(c2)S/C(=C(/C(N)=O)c2nccc(C(F)(F)F)n2)N3)CC1 [Compound 56A] | 40 | 40 |
| 9 | 5 | 9 | 500 | CN1CCN(C(=O)c2ccc3c(c2)N/C(=C(/C(N)=O)c2nccc(C(F)(F)F)n2)N3)CC1 [Compound 58A] | 400 | 60 |
| 8 | 20 | 6 | 90 | CN1CCN(C(=O)c2ccc3c(c2)S/C(=C(/C(N)=O)c2nccc(C(F)(F)F)n2)N3)CC1 [Compound 59A] | 400 | 50 |
| 10 | 40 | 4 | 40 | NC(=O)/C(=C1\Nc2ccc(C(=O)N3CCC(N)CC3)cc2S1)c1nccc(C(F)(F)F)n1 [Compound 67A] | 200 | 20 |
| 10 | 10 | 3 | 60 | NC(=O)/C(=C1\Nc2ccc(C(=O)N3CC[C@@H](N)C3)cc2N1)c1nccc(C(F)(F)F)n1 [Compound 68A] | 100 | 60 |
